Test results reported in patent US4997950A, “Novel C-terminal gastrin antagonists” (priority 1989, dated 1991).
Entries after “also recorded” stand apart in the source; their conditions may differ. Structures can show the parent of a compound that is named as a salt. Blank lines part the entries; values can stand above or below the molecule they belong to. Non-standard residues stand in square brackets, D forms with d. Residues, ends and D or L forms follow the SMILES beside them. *: point of attachment. Boc = CC(C)(C)OC(=O)*; βAla = NCCC(=O)O

Columns and labels:
[1] = system: acid secretion, isolated perfused rat stomach; experiment: acid output from the isolated, perfused rat stomach, with or without gastrin-17; set-up: species or system rat (Wistar)
Procedure: In brief, stomachs from fasted male Wistar rats (240-270 g) were completely isolated and placed in organ baths filled with Krebs-Ringer buffer. The vascular bed was perfused at a rate of 2 ml.min^-1 with Krebs-Ringer buffer containing 5 mM glucose, 5 mM pyruvate, 40 mg.ml^-1 bovine serum albumin and 10% (v/v) fresh, washed ovine erythrocytes gassed with 96% O2, 4% CO2 by a membrane oxygenator. The gastric lumen was perfused with distilled water (pH 7.0) gassed with O2 (100%). All perfusates and the organ bath were kept at 37° C. After an initial "wash-out" period of 20 minutes, isobutylmethylxanthine (50 μM) was added to the vascular perfusate. After a further 20 minutes, the peptide to be tested was added, giving a final peptide concentration of 10^-9, 10^-7 or 10^-5 M. Five other stomachs were given 520 pM gastrin which was known to produce maximal acid secretion. Furthermore, each peptide was given together with gastrin (520 pM) to evaluate the gastrin inhibitory properties of the peptide. The acid output was determined by titration of the lumenal perfusate to neutrality with dodium hydroxide (1 mM).

[2] = system: gastrin / pentagastrin-stimulated acid secretion; conditions: cited from earlier work
[3] = system: pentagastrin stimulated acid secretion, rat stomach; experiment: acid secretion from the ligated rat stomach; type: in vivo, rat (Sprague-Dawley); conditions: for ACID SECRETION: basal 26.7 ± 3.21
Procedure: In brief fasted male Sprague-Dawley rats (200-250 g) were anaesthetised by the intravenous administration of Sagital (0.1 mg/100 g body weight). The abdominal cavity of each rat was exposed and the stomach was ligated at the pyloric and cardiac sphincters. The test solution (200 μl), containing either saline, pentagastrin (1 μg) or the synthetic peptide in conjunction with pentagastrin (1 μg), was applied directly to the exposed stomach surface, and left for 80 minutes. The stomach was then removed and the contents were washed out with distilled water (15 ml). The washings were titrated to neutrality by the addition of sodium hydroxide (10 mM).

[4] = system: pentagastrin-stimulated acid secretion; experiment: inhibition of pentagastrin-stimulated acid secretion in dogs with gastric fistula and Heidenhain pouch; type: in vivo, dog (beagle); conditions: for order of decreasing antagonist activity: 20 pmol.kg^-1.h^-1; for effect on pentagastrin-stimulated acid secretion: 20 pmol.kg^-1.h^-1, gastric fistula and Heidenhain pouch; for ACID INHIBITION / percentage inhibition of acid: analogue 20 pmol.kg^-1.h^-1, period 110-170 minutes
Procedure: (§1) In brief, six beagle dogs were surgically prepared with Heidenhain pouches and gastric fistula. The dogs were fasted for 18 hours before the experiment. […] Collections of gastric secretions were recovered at 10 minute intervals. Each dog received an intravenous infusion throughout the experiment consisting of 150 mM NaCl and 8 mM KCl at 2 ml.min^-1. Secretory stimulants and the synthetic peptides were added to this infusion at appropriate rates. The stimulants of gastric secretion used were pentagastrin and histamine phosphate. Pentagastrin (0.5 μg.Kg^-1.h^-1) was given for 1 hour and then the synthetic peptide was added to the infusion and continued for another hour at a dose of 20 pmol.kg^-1 h^-1. The procedure was identical for histamine except that the dose of histamine was […]. The ten minute samples were titrated to pH 7.0 by the addition of sodium hydroxide (1 mM) and the acid secretion was expressed as μmol H^+ per 10 minutes.
The analogues depicted in Table 6.5 were tested as gastrin antagonists using dogs surgically prepared with gastric fistulae and Heidenhain pouches. The acid secretion was measured at 10 minute intervals during the administration of pentagastrin and each of the analogues.

pepsin secretion = experiment: inhibition of pepsin secretion in dogs with gastric fistula and Heidenhain pouch; type: in vivo, dog (beagle); conditions: for effect on pepsin secretion: gastric fistula
Procedure: as §1

SMILES: CSCCC(NC(=O)C(Cc1c[nH]c2ccccc12)NC(=O)CNC(=O)C(Cc1ccc(O)cc1)NC(=O)C(C)NC(=O)C(CCC(=O)O)NC(=O)C(CCC(=O)O)NC(=O)C(CCC(=O)O)NC(=O)[C@H](CCC(=O)O)NC(=O)[C@H](CCC(=O)O)NC(=O)[C@H](CC(C)C)NC(=O)[C@H](Cc1c[nH]c2ccccc12)NC(=O)[C@@H]1CCCN1C(=O)CNC(=O)[C@@H](N)CCC(=O)O)C(=O)NC(CC(=O)O)C(=O)NC(Cc1ccccc1)C(N)=O (stereo in doubt) [GASTRIN]
Acid output ([1]; gastrin 520 pM alone, basal 8.7): 58.7 μmol H^+ /60 min

SMILES: CC(C)C[C@H](NC(=O)[C@H](Cc1c[nH]c2ccccc12)NC(=O)OC(C)(C)C)C(=O)N[C@@H](CC(=O)O)C(N)=O [N-tBOC-Trp-Leu-Asp-NH2] (Boc-Trp-Leu-Asp-NH2)
antagonist activity [2]: shortest sequence still retaining antagonist activity
concentration at which antagonist properties are exhibited [2]: 100 µM
reduction of acid secretion ([2]; joint infusion of peptide (40 μg/kg) and pentagastrin (0.5 μg/kg)): 50%

SMILES: CSCC[C@H](NC(=O)[C@H](Cc1c[nH]c2ccccc12)NC(=O)CCNC(=O)OC(C)(C)C)C(=O)N[C@@H](CC(=O)O)C(=O)N[C@@H](Cc1ccccc1)C(N)=O [PENTAGASTRIN, reference compound]
ACID SECRETION ([3]; pentagastrin 13 nmol/kg alone): 60.6 ± 8.63 μmol/80 min

SMILES: CC(C)C[C@H](NC(=O)[C@H](Cc1c[nH]c2ccccc12)NC(=O)OC(C)(C)C)C(=O)NCCC(=O)O [Peptide I, t-Butyloxycarbonyl-L-Tryptophyl-L-Leucyl-β-Alanine] (Boc-Trp-Leu-[βAla]-OH)
ACID SECRETION ([3]; peptide 8.2 nmol/kg + pentagastrin 13 nmol/kg): 22.7 ± 7.27 μmol/80 min
effect on acid secretion, ligated stomach ([3]; peptide I 8.2 nmol.Kg^-1 with pentagastrin, peptide XXII 80 or 4 pmol.Kg^-1): potent antagonist of pentagastrin stimulated acid secretion; also recorded: reduced to a value similar to the basal level
ACID SECRETION ([3]; peptide alone 8.2 nmol/kg): 28.6 ± 4.21 μmol/80 min
order of decreasing antagonist activity [4]: I>III>XIV>XV>II
effect on pentagastrin-stimulated acid secretion ([4]; listed as Boc-Trp-Leu-β-Ala): retaining potent antagonistic properties
effect on pentagastrin-stimulated acid secretion ([4]; listed as Boc-Trp-leu-β-Ala): most potent antagonist of the series
ACID INHIBITION ([4]; GF (gastric fistula)): 617.58 mmol H^+ /kg
percentage inhibition of acid ([4]; GF (gastric fistula)): 60%
ACID INHIBITION ([4]; HP (Heidenhain pouch)): 35.70 mmol H^+ /kg
percentage inhibition of acid ([4]; HP (Heidenhain pouch)): 55.8%
Inhibition of Pepsin Secretion (pepsin secretion; GF (gastric fistula)): 67.3 Units/kg
percentage inhibition of pepsin secretion (pepsin secretion; GF (gastric fistula)): 59.2%
Inhibition of Pepsin Secretion (pepsin secretion; HP (Heidenhain pouch)): 1.65 Units/kg
effect on pepsin secretion (pepsin secretion): significant decrease in pepsin secretion from the gastric fistula

SMILES: CC(C)C[C@H](NC(=O)CCc1ccccc1)C(=O)NCCC(=O)O [Peptide II, Phenyl-3-Propionyl-Leucyl-β-Alanine]
order of decreasing antagonist activity [4]: I>III>XIV>XV>II
effect on pentagastrin-stimulated acid secretion [4]: gastrin antagonists although they are less potent than the parent peptide
ACID INHIBITION ([4]; GF (gastric fistula)): 562.22 mmol H^+ /kg
percentage inhibition of acid ([4]; GF (gastric fistula)): 54.7%
ACID INHIBITION ([4]; HP (Heidenhain pouch)): 32.59 mmol H^+ /kg
percentage inhibition of acid ([4]; HP (Heidenhain pouch)): 50.92%

SMILES: CC(C)C[C@H](NC(=O)CCc1c[nH]c2ccccc12)C(=O)NCCC(=O)O [Peptide III, Indole-3-Propionyl-L-Leucyl-β-Alanine]
order of decreasing antagonist activity [4]: I>III>XIV>XV>II
effect on pentagastrin-stimulated acid secretion [4]: gastrin antagonists although they are less potent than the parent peptide
ACID INHIBITION ([4]; GF (gastric fistula)): 125.51 mmol H^+ /kg
percentage inhibition of acid ([4]; GF (gastric fistula)): 12.2%
Inhibition of Pepsin Secretion (pepsin secretion; GF (gastric fistula)): 71.1 Units/kg
percentage inhibition of pepsin secretion (pepsin secretion; GF (gastric fistula)): 62.5%
Inhibition of Pepsin Secretion (pepsin secretion; HP (Heidenhain pouch)): 5.78 Units/kg
effect on pepsin secretion (pepsin secretion): significant decrease in pepsin secretion from the gastric fistula

SMILES: CC(C)C[C@H](NC(=O)CCc1c[nH]c2ccccc12)C(=O)N[C@@H](CC(=O)O)C(=O)NCCc1ccccc1 [Peptide V, Indole-3-Propionyl-L-Leucyl-L-Aspartyl-Phenethylamide]
ACID INHIBITION ([4]; GF (gastric fistula)): 303.25 mmol H^+ /kg
percentage inhibition of acid ([4]; GF (gastric fistula)): 29.5%
ACID INHIBITION ([4]; HP (Heidenhain pouch)): 11.00 mmol H^+ /kg
percentage inhibition of acid ([4]; HP (Heidenhain pouch)): 17.2%
Inhibition of Pepsin Secretion (pepsin secretion; GF (gastric fistula)): -3.1 Units/kg
percentage inhibition of pepsin secretion (pepsin secretion; GF (gastric fistula)): 0%
Inhibition of Pepsin Secretion (pepsin secretion; HP (Heidenhain pouch)): 2.04 Units/kg

SMILES: CC(C)C[C@@H](C(=O)NCCC(=O)O)N(C)C(=O)CCc1ccccc1 [Peptide XIV, Phenyl-3-propionyl-N-methyl-L-Leucyl-β-Alanine]
order of decreasing antagonist activity [4]: I>III>XIV>XV>II
effect on pentagastrin-stimulated acid secretion [4]: antagonists with significant activity
ACID INHIBITION ([4]; GF (gastric fistula)): 256.77 mmol H^+ /kg
percentage inhibition of acid ([4]; GF (gastric fistula)): 25%

SMILES: CC(C)C[C@H](NC(=O)CCc1ccccc1)C(=O)N(C)CCC(=O)O [Peptide XV, Phenyl-3-propionyl-L-Leucyl-N-Methyl-β-Alanine]
order of decreasing antagonist activity [4]: I>III>XIV>XV>II
effect on pentagastrin-stimulated acid secretion [4]: antagonists with significant activity
ACID INHIBITION ([4]; GF (gastric fistula)): 185.32 mmol H^+ /kg
percentage inhibition of acid ([4]; GF (gastric fistula)): 18%

SMILES: CC(C)C[C@H](NC(=O)[C@@H](N)Cc1c[nH]c2ccccc12)C(=O)CN[C@@H](CC(=O)O)C(=O)N[C@@H](Cc1ccccc1)C(N)=O [Peptide XXI, L-Tryptophyl-L-Leucyl-.psi.(COCH2 NH)-L-Aspartyl-L-Phenylalanyl amide dihydrochloride]
effect on acid secretion, isolated perfused stomach ([1]; 10^-9 to 10^-5 M, absence or presence of gastrin-17 520 pM, dihydrochloride): At low concentrations it inhibits basal acid secretion; also recorded: when administered at 10^-5 M or in conjunction with gastrin-17, it acts as a weak agonist; also recorded: partial agonist
Acid output ([1]; peptide 10^-5 M + G-17 (520 pM), gastrin alone 58.7): 68.5 μmol H^+ /60 min
Acid output ([1]; peptide 10^-5 M, basal 8.7): 22.4 μmol H^+ /60 min
Acid output ([1]; peptide 10^-7 M, basal 8.7): 1.6 μmol H^+ /60 min
Acid output ([1]; peptide 10^-9 M, basal 8.7): 2.2 μmol H^+ /60 min

increase of affinity for the gastrin receptor as compared to pentagastrin ([3]; deduced from γ-lactam peptide acid secretion): approximately 120 fold
SMILES: CC(C)C[C@H](NC(=O)[C@H](Cc1c[nH]c2ccccc12)NC(=O)CN1CC[C@H](NC(=O)[C@H](C)NC(=O)OC(C)(C)C)C1=O)C(=O)N[C@@H](CC(=O)O)C(=O)N[C@@H](Cc1ccccc1)C(N)=O [Peptide XXII, t-Butyloxycarbonyl-L-Alanyl-amino-2-oxo-1-pyrrolidineacetyl-L-Tryptophyl-L-Leucyl-L-Aspartyl-L-Phenylalanyl amide]
